Measured values as given in article PMC7044277 (Nature Communications, 2020).
Several values for one entry are separate records, joined by “and”; a condition that tells them apart may be missing. Equal entries are not always repeated.

Columns and labels:
DRD3 = DRD3 (Homo sapiens, UniProt P35462); experiment: β-arrestin2 recruitment (Tango); format: cell-based
[1] = target: DRD2 (D2 long receptor) wild-type (Homo sapiens, UniProt P14416); experiment: Radioligand competition binding, [3H]-N-methylspiperone, HEK293T membranes; details: DRD2; [3H]-methylspiperone (0.8-1.0 nM); read-out: Ki
Chain of DRD2 (D2 long receptor) wild-type (P14416 whole entry): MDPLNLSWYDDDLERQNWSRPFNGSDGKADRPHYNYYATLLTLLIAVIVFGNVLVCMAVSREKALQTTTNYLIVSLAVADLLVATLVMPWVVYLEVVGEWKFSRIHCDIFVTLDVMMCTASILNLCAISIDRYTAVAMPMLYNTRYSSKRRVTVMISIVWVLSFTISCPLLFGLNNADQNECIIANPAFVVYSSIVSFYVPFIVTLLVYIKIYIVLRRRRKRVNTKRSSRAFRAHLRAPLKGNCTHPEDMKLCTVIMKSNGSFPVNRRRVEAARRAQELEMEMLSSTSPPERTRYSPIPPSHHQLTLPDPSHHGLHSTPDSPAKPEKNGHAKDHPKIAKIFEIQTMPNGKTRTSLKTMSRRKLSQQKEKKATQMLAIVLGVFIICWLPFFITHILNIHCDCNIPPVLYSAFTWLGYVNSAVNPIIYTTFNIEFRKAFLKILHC

DRD2 F1103.28L = target: T1, DRD2 F1103.28L (Homo sapiens, UniProt P14416, F110L); experiment: Gαi/o-mediated cAMP inhibition (GloSensor), mutant; format: cell-based; details: DRD2 F1103.28L (b138 head prints DRD2 F1063.28L)
T1 construct: expressed in transfected cells; host or cells: HEK293T (ATCC CRL-11268)
T1 sequence (P14416 whole entry F110L): as the sequence (P14416 whole entry) above, with F110L counted along it

DRD3 F1063.28A = DRD3 F1063.28A (Homo sapiens, UniProt P35462, F106A); experiment: biochemical; format: binding
Chain of DRD3 F1063.28A (P35462 whole entry F106A): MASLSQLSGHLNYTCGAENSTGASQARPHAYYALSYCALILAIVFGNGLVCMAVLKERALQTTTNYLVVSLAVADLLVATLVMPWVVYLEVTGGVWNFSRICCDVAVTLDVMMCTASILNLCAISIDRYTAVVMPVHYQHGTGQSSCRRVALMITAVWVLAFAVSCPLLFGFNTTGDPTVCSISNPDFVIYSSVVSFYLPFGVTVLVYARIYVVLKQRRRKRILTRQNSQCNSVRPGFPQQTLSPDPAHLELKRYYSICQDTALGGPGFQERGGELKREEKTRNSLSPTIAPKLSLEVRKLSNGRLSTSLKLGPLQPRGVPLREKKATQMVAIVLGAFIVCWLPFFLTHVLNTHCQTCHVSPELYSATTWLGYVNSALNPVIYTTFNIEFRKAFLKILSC

[2] = system: serotonin receptor of Fig_S10g (subtype not named); experiment: β-arrestin2 recruitment (Tango), agonist activity, panel Fig_S10g (serotonin as reference; receptor not given); format: cell-based, human
DRD2 (D2 long receptor) = DRD2 (D2 long receptor) (Homo sapiens, UniProt P14416); experiment: β-arrestin2 recruitment (Tango), HTLA cells; format: cell-based; details: for response, concentration-response data point (replicates): Fig_S10a, drug alone
Chain of DRD2 (D2 long receptor) (P14416 whole entry): as the sequence (P14416 whole entry) above

Chain of DRD3 (P35462 whole entry): as the sequence (P35462 whole entry F106A) above, with A106F counted along it

Compound: CCOc1cccc2cc([C@H](C)NCC3(O)CCCCC3)oc12 [O4SE6]
- β-arrestin2 recruitment response at DRD3 (source data, replicate values) (DRD3; Log[Drug] -9.52): 0.6514 and 0.02761 and -0.07333 and 1.513 and -0.1516 and 0.7866 and 1.233 and 1.648 and 0.09503
- β-arrestin2 recruitment response at DRD3 (source data, replicate values) (DRD3; Log[Drug] -10): 1.257 and -0.3865 and -0.07075 and 0.2387 and 0.7918 and -0.1413 and 0.6108 and 0.3983 and -0.4207
- β-arrestin2 recruitment response at DRD3 (source data, replicate values) (DRD3; Log[Drug] -10.52): 3.755 and 0.333 and -0.07333 and 2.441 and 0.1379 and -0.03791 and 0.1961 and 1.7564 and 0.1754
- β-arrestin2 recruitment response at DRD3 (source data, replicate values) (DRD3; Log[Drug] -11): 0.522 and -0.07333 and -0.1743 and 0.2309 and 5.954 and 1.288 and -0.4182 and -0.01901 and 1.549
- β-arrestin2 recruitment response at DRD3 (source data, replicate values) (DRD3; Log[Drug] -11.52): 1.588 and -0.07592 and 0.1337 and 0.3757 and 0.0448 and -0.03791 and 0.4061 and 1.448 and -0.2186
- Ki [1]: 4570 nM
- EC50 (DRD2 F1103.28L): > 10000 nM
- Ki (DRD3 F1063.28A): 1910 nM
- response, single replicate of concentration-response curve ([2]; Log[Drug] -6.52, drug alone): -6.59
- response, single replicate of concentration-response curve ([2]; Log[Drug] -7, drug alone): -3.19 and -7.082 and 4.545 and 9.195 and -2.738 and -3.211 and 7.129 and -1.468 and 1.444
- response, single replicate of concentration-response curve ([2]; Log[Drug] -7.52, drug alone): -9.03 and -3.911 and 11.866 and -9.097 and -3.819 and 15.0981 and -7.146 and 2.056 and -13.2444
- response, single replicate of concentration-response curve ([2]; Log[Drug] -8, drug alone): -6.944 and -3.717 and -3.146 and 13.9874 and -6.035 and -6.807 and 15.6877 and -18.2271 and -10.0032
- response, single replicate of concentration-response curve ([2]; Log[Drug] -8.52, drug alone): -4.818 and -1.578 and 1.598 and 2.984 and 0.747 and -7.738 and -15.1053 and -13.4017 and -9.68
- response, single replicate of concentration-response curve ([2]; Log[Drug] -9, drug alone): -4.766 and 4.75 and -7.577 and 4.415 and 0.09191 and 14.1047 and 1.581 and -6.014 and 1.453
- response, single replicate of concentration-response curve ([2]; Log[Drug] -9.52, drug alone): -5.307 and -4.4569 and -8.217 and -4.562 and -1.4705 and 8.897 and -2.656 and -20.9208 and -10.1255
- response, single replicate of concentration-response curve ([2]; Log[Drug] -10, drug alone): -5.416 and -3.999 and 8.581 and -6.089 and 12.3409 and -9.7675 and -12.7406 and -13.5007 and -15.0762
- response, single replicate of concentration-response curve ([2]; Log[Drug] -10.52, drug alone): -6.121 and -0.8987 and -0.5671 and -2.839 and 2.161 and 0.6785 and -9.456 and -4.939 and -9.345
- response, single replicate of concentration-response curve ([2]; Log[Drug] -11, drug alone): -4.41 and -4.674 and 2.4299 and -4.435 and -1.821 and -1.439 and -6.281 and -6.238 and -10.7545
- response, single replicate of concentration-response curve ([2]; Log[Drug] -11.52, drug alone): -9.9476 and -4.984 and -8.874 and -7.243 and 10.0217 and 14.7168 and -21.4945 and -11.4709 and -8.23
- response, single replicate of concentration-response curve ([2]; Log[Drug] -12, drug alone): 2.568 and -7.302 and 4.735 and 18.6257 and 12.38 and 36.6159 and 18.9202 and -0.5417 and 1.31
- β-arrestin2 recruitment agonist activity (DRD2 (D2 long receptor); DRD2, Tango): selective DRD2 agonist
- EC50 (DRD2 (D2 long receptor); DRD2, β-arrestin2 recruitment (Tango), read-out: EC50 ± SEM): 1050 nM
- response, concentration-response data point (replicates) (DRD2 (D2 long receptor); Log[Drug] -5): 73.5777 and 57.7969 and 60.7943 and 65.7822 and 71.9755 and 71.4753 and 62.0106
- response, concentration-response data point (replicates) (DRD2 (D2 long receptor); Log[Drug] -5.52): 50.6787 and 47.7474 and 41.401 and 56.0167 and 52.8546 and 51.367 and 55.6817
- response, concentration-response data point (replicates) (DRD2 (D2 long receptor); Log[Drug] -6): 39.3966 and 41.1099 and 37.2084 and 41.7585 and 38.5021 and 38.079 and 42.2149
- response, concentration-response data point (replicates) (DRD2 (D2 long receptor); Log[Drug] -6.52): 17.548 and 17.9218 and 22.2395 and 30.2893 and 22.7451 and 19.4102 and 21.7916
- response, concentration-response data point (replicates) (DRD2 (D2 long receptor); Log[Drug] -7): 9.564 and 7.739 and 7.708 and 7.415 and 7.649 and 7.113 and 9.501
- response, concentration-response data point (replicates) (DRD2 (D2 long receptor); Log[Drug] -7.52): 5.75 and 5.841 and 5.282 and 5.619 and 6.782 and 5.749 and 5.8801
- response, concentration-response data point (replicates) (DRD2 (D2 long receptor); Log[Drug] -8): 5.434 and 5.45 and 5.389 and 5.042 and 5.329 and 5.148 and 5.345
- response, concentration-response data point (replicates) (DRD2 (D2 long receptor); Log[Drug] -8.52): 5.277 and 5.01 and 4.9419 and 4.98 and 5.0858 and 5.308 and 5.178
- response, concentration-response data point (replicates) (DRD2 (D2 long receptor); Log[Drug] -9): 5.4097 and 5.385 and 5.128 and 4.863 and 4.947 and 4.805 and 4.8829
- response, concentration-response data point (replicates) (DRD2 (D2 long receptor); Log[Drug] -9.52): 5.139 and 4.887
- response, concentration-response data point (replicates) (DRD2 (D2 long receptor); Log[Drug] -10): 5.431 and 4.786 and 4.659 and 4.856 and 4.756 and 4.79 and 4.8682
- response, concentration-response data point (replicates) (DRD2 (D2 long receptor); Log[Drug] -10.52): 5.022 and 4.798 and 4.776 and 4.763 and 4.86 and 4.945 and 4.841
- response, concentration-response data point (replicates) (DRD2 (D2 long receptor); Log[Drug] -11): 4.915 and 4.765 and 4.615 and 4.7302 and 4.774 and 4.749 and 4.971
- response, concentration-response data point (replicates) (DRD2 (D2 long receptor); Log[Drug] -11.52): 4.946 and 4.662 and 4.627 and 4.695 and 4.751 and 4.656 and 4.732
- response, concentration-response data point (replicates) (DRD2 (D2 long receptor); Log[Drug] -12): 4.887 and 4.582 and 4.674 and 4.754 and 4.726 and 4.751 and 4.811
- Emax (DRD2 (D2 long receptor); HTLA, read-out: Emax relative to quinpirole response, DRD2, Tango): 71.3%
- β-arrestin2 recruitment response at DRD2 (source data, replicate values) (DRD2 (D2 long receptor); Log[Drug] -6): 82.8973
- β-arrestin2 recruitment response at DRD2 (source data, replicate values) (DRD2 (D2 long receptor); Log[Drug] -6.52): 72.8482 and 85.473 and 74.6038 and 82.6009 and 103.942 and 82.378 and 70.1593 and 68.4699 and 74.397
- β-arrestin2 recruitment response at DRD2 (source data, replicate values) (DRD2 (D2 long receptor); Log[Drug] -7): 71.4846 and 69.3009 and 62.1089 and 68.8602 and 55.9009 and 59.7861 and 54.6819 and 54.8285 and 54.3284
- β-arrestin2 recruitment response at DRD2 (source data, replicate values) (DRD2 (D2 long receptor); Log[Drug] -7.52): 50.7715 and 50.9759 and 58.0792 and 57.6214 and 43.2407 and 45.9376 and 55.9749 and 62.7315 and 56.5853
- β-arrestin2 recruitment response at DRD2 (source data, replicate values) (DRD2 (D2 long receptor); Log[Drug] -8): 39.7841 and 36.3747 and 29.4664 and 31.1292 and 29.8397 and 30.2988 and 27.2382 and 26.622 and 26.0732
- β-arrestin2 recruitment response at DRD2 (source data, replicate values) (DRD2 (D2 long receptor); Log[Drug] -8.52): 13.2168 and 14.3867 and 13.161 and 13.9303 and 10.9069 and 10.856 and 10.5462 and 11.4912 and 11.2421
- β-arrestin2 recruitment response at DRD2 (source data, replicate values) (DRD2 (D2 long receptor); Log[Drug] -9): 7.123 and 6.617 and 6.837 and 5.043 and 6.064 and 6.895 and 5.588 and 6.122 and 5.826
- β-arrestin2 recruitment response at DRD2 (source data, replicate values) (DRD2 (D2 long receptor); Log[Drug] -9.52): 5.908 and 5.15 and 5.772 and 5.0023 and 4.872 and 4.927 and 5.017 and 5.057 and 5.0924
- β-arrestin2 recruitment response at DRD2 (source data, replicate values) (DRD2 (D2 long receptor); Log[Drug] -10): 5.347 and 5.121 and 5.289 and 4.982 and 4.774 and 4.763 and 4.918 and 4.901 and 4.8503
- β-arrestin2 recruitment response at DRD2 (source data, replicate values) (DRD2 (D2 long receptor); Log[Drug] -10.52): 5.092 and 5.033 and 5.133 and 4.671 and 4.683 and 4.718 and 4.817 and 4.868 and 4.747
- β-arrestin2 recruitment response at DRD2 (source data, replicate values) (DRD2 (D2 long receptor); Log[Drug] -11): 5.0524 and 5.024 and 4.843 and 4.786 and 4.868 and 4.603 and 4.715 and 4.851 and 5.108
- β-arrestin2 recruitment response at DRD2 (source data, replicate values) (DRD2 (D2 long receptor); Log[Drug] -11.52): 4.975 and 5.004 and 4.993 and 4.845 and 4.81 and 4.615 and 4.945 and 4.7318 and 4.6555
